From patent US10188693B2, “Methods for treatment of atherosclerosis” (Stealth BioTherapeutics Corp, priority 2012, dated 2019)
Values joined by “and” are separate entries in the source; they are usually repeats but may differ in a detail not shown here. Equal values may be shown once. “Also recorded” adds a separate entry of the source.

Assays:
[1] = test system: Apoprotein E deficient mice; assay: Total lesion area in aortic root 300 μm across aortic valve (aortic sinus cryosections, lipid staining); assay type: in vivo; set-up: Area, total lesion area in aortic root / Area, total lesion area in aortic root, AVE: unit not given here; conditions: 12 weeks
Text: (§1) Apoprotein E deficient mice (Jackson Laboratories, 600 Main Street, Bar Harbor, Me.) were used in this study. The mice were male, 7-8 weeks of age, and between 18-20 g in weight. An initial total cholesterol measurement was made on 30 mice, and the mice were grouped into two groups of 15 to match the total cholesterol measurements. Both groups were fed a “western diet” (40 kcal % butterfat, 0.15% [wt/wt] cholesterol, Harlan Teklad diet TD-88137). Starting at t=0, the control group of 15 mice received vehicle only (phosphate buffered saline at pH 7.4), while the test group of 15 mice received aromatic-cationic peptide reconstituted in phosphate buffered saline. Body weights of the mice were recorded weekly, and mortality checks were performed daily.
The aromatic-cationic peptide D-Arg-2′6′-Dmt-Lys-Phe-NH2 (sterile lyophilized powder, reconstituted in phosphate buffered saline) was tested. […]
For the aortic sinus, the heart and approximately 5 mm of the ascending aorta was cut from the remainder of the aorta. […] The sinus was imaged at 5 step levels in the region of interest, i.e., the aortic root, for a total distance of 300 μm and the lipid-staining areas and measured (total cross sectional area) using a Nikon computerized image analysis system. The data were then computed by group and statistically analyzed.

[2] = test system: Apoprotein E deficient mice; assay: En face analysis of atherosclerotic lesions of the thoracic aorta (Sudan IV, % of aortic surface covered by lipid); assay type: in vivo; conditions: 12 weeks
Text: as §1
The aromatic-cationic peptide D-Arg-2′6′-Dmt-Lys-Phe-NH2 (sterile lyophilized powder, reconstituted in phosphate buffered saline) was tested. For the 12-week study, test mice received a single, daily dose of the peptide, subcutaneously at 1 mg/kg. Control mice received a single daily dose of vehicle.
Histopathology/Histomorphometery: Following the 12 week treatment, mice were euthanized within 48 hours after the last dose by CO2 asphyxiation and the vascular tree was perfused with 5 mL of phosphate buffered saline (pH 7.4). The aorta and aortic sinus were removed for examination. Thoracic aorta were isolated, trimmed of fat, and fixed in formalin for 48-72 hours before analysis. For en face analysis, aortas were laid out and pinned on black matrix for photography, and stained with Sudan IV. Vessels were imaged for surface involvement using a Nikon computerized image analysis system and the percent of the aortic surface area covered by lipid was calculated. Two determinations were done for each image (Quan 1 and Quan 2), and the average was computed. The data were then computed by group and statistically analyzed. Following staining and morphometric analysis, total lipids were extracted from the aortas using the Bligh-Dyer method. WAKO Diagnostics kits (WAKO Diagnostics, Inc., 1600 Bellwood Road Richmond, Va. 23237-1326) were then used to evaluate total cholesterol, free cholesterol, and cholesterol ester. Cholesterol leves were quantitate nad expressed relative to protein levels. Values are expressed as μg lipid per mg protein (see e.g., FIG. 1).

[3] = treated versus vehicle, listed as aromatic-cationic peptide
[4] = individual mouse, 1 mg/kg subcutaneously daily, western diet, 1 mg/kg

Substance: D-Arg-2′6′-Dmt-Lys-Phe-NH2
- Area, total lesion area in aortic root, AVE ([1]; group average, 300 μm across aortic valve, 1 mg/kg subcutaneously daily): 282.72
- total (mean) lesion area in aortic root, in words [1, 3]: reduces; also recorded: lower
- Ave (average % of the surface of the aortas showing lesions) ([2]; group average of 15 test mice, 1 mg/kg subcutaneously daily): 5.328%
- Ave. % of Lesion ([2]; individual mouse, average of Quan 1 and Quan 2, 1 mg/kg subcutaneously daily, 1 mg/kg): 2.615% and 0.892% and 9.027% and 3.019% and 7.009% and 4.833% and 1.996% and 1.205% and 9.948% and 2.763% and 6.814% and 4.734% and 0.834% and 11.239% and 12.990%
- Quan 1 (first determination of % of the aortic surface covered by lipid) [2, 4]: 2.562% and 0.914% and 8.769% and 2.832% and 7.137% and 5.198% and 2.128% and 1.388% and 10.000% and 2.990% and 7.091% and 4.700% and 0.775% and 11.589% and 13.857%
- Quan 2 (second determination of % of the aortic surface covered by lipid) [2, 4]: 2.667% and 0.870% and 9.284% and 3.205% and 6.881% and 4.468% and 1.863% and 1.021% and 9.895% and 2.536% and 6.536% and 4.768% and 0.892% and 10.888% and 12.122%
- atherosclerotic lesions in the aorta (% lesion area), in words [2, 3]: reduces; also recorded: lower
